The values below come from patent US5883121A, “Epoxysuccinamide derivative or salt thereof, and medicine comprising the same” (Taiho Pharmaceutical Co., Ltd., priority 1995, dated 1999).

Structures can show the parent of a compound that is named as a salt.

One assay has as its target T1, cathepsin B (Rattus norvegicus, UniProt P00787).
T1 construct: extracted from a rat liver and completely purified; from tissue; host or cells: rat liver
The assay is described as follows: Determination of inhibition rate against cathepsin B. Conditions: cathepsin B from rat liver; substrate Z-Arg-Arg-MCA; pH 5.5; 30° C; 10 minutes. Format: biochemical. How it is done: (§1) Determination of inhibition rate against cathepsin L, B and H […]
(§2) Each cathepsin was diluted with a diluent (0.1% Brij 35) to adjust its concentration to 0.3 U (0.1 U: a concentration at which 1.0 nmol of MCA is released per minute at 37° C.). To 500 μl of this solution, were added 250 μl of an activator/buffer (340 mM sodium acetate, 60 mM acetic acid, 4 mM disodium EDTA; pH 5.5). After the mixture was incubated for 1 minute at 30° C., the sample solution of the predetermined concentration and […] of a substrate solution were added to conduct a reaction for 10 minutes.

The target in another assay is T2, cathepsin L (Rattus norvegicus, UniProt P07154).
T2 construct: extracted from a rat liver and completely purified; from tissue; host or cells: rat liver
In words: Determination of inhibition rate against cathepsin L. Format: biochemical. Conditions: for B/L: IC50 against cathepsin B divided by IC50 against cathepsin L; for IC50: cathepsin L from rat liver, substrate Z-Phe-Arg-MCA, pH 5.5, 30° C, 10 minutes. As to the method:
as §1, §2

T1 sequence (P00787 129-333 limits assumed): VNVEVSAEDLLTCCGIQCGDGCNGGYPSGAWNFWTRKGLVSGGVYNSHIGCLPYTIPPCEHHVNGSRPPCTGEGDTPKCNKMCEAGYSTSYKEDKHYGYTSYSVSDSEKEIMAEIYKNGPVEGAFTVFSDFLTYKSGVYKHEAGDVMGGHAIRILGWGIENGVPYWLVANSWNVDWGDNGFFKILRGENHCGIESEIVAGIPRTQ
T1 sequence (P00787 80-126 limits assumed): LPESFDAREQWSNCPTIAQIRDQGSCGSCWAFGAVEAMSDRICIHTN
T2 sequence (P07154 114-288 limits assumed): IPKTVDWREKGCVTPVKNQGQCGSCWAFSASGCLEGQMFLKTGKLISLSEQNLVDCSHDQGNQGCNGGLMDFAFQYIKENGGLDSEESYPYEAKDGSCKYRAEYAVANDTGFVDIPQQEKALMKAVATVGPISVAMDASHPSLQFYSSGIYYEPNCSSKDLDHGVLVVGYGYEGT
T2 sequence (P07154 291-334 limits assumed): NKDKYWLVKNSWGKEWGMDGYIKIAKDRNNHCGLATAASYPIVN

On to `CCNC(=O)[C@H](Cc1ccccc1)NC(=O)[C@H]1O[C@@H]1C(=O)N[C@@H](CCCCN)C(=O)Nc1ccccc1` [Example 67, Nα-{L-3-trans-[(S)-1-ethylcarbamoyl-2-phenylethylcarbamoyl]oxirane-2-carbonyl)-L-lysine anilide hydrochloride], for which half-maximal inhibition on cathepsin B (IC50) required 68000 nM. On cathepsin L, this compound displayed a B/L of 1570 and a 50% inhibitory concentration (IC50) of 36 nM.
The like results for `NCCCC[C@H](NC(=O)[C@H]1O[C@@H]1C(=O)NC1Cc2ccccc2C1)C(=O)Nc1cccc2ccccc12` [Example 12, Nα-[L-3-trans-(2-indanylcarbamoyl)oxirane-2-carbonyl]-L-lysine-1-naphthylamide hydrochloride] were, in that order, more than 10000 nM, more than 250 and 40 nM.
`NCCCC[C@H](NC(=O)[C@H]1O[C@@H]1C(=O)N[C@@H](Cc1ccccc1)C(=O)NCCc1ccccc1)C(=O)Nc1cccc2ccccc12` [Example 24, Nα-{L-3-trans-[(S)-1-(2-phenylethylcarbamoyl)-2-phenylethylcarbamoyl]oxirane-2-carbonyl}-L-lysine-1-naphthylamide hydrochloride] displayed an IC50 against cathepsin B of 2100 nM. Further, on cathepsin L, the B/L is listed as 70000 and the midpoint of inhibition, the IC50, lay at 0.03 nM.
Consider `NCCCC[C@H](NC(=O)[C@H]1O[C@@H]1C(=O)N[C@@H](Cc1ccccc1)C(=O)NCCc1ccccc1)C(=O)Nc1ccccc1C(F)(F)F` [Example 43, Nα-{L-3-trans-[(S)-1-(2-phenylethylcarbamoyl)-2-phenylethylcarbamoyl]oxirane-2-carbonyl)-L-lysine-2-trifluoromethylanilide hydrochloride], for which, on cathepsin B, the IC50 came to 90000 nM. For the same compound, on cathepsin L, the B/L is listed as 30000 and the IC50 was determined as 3 nM.
For `NCCCCCCCCNC(=O)[C@H](Cc1ccccc1)NC(=O)[C@H]1O[C@@H]1C(=O)O` [Preparation Example 61, N-{N-[(2S,3S)-3-trans-Carboxyoxirane-2-carbonyl]-L-phenylalanyl}-1,8-diaminooctane, reference compound], the IC50 was found to be 23 nM on cathepsin B and 0.81 nM against cathepsin L. For the same compound, at cathepsin L, the B/L was 28.4.
On the same counts, the results for `CN(C)C(=O)[C@H](Cc1ccccc1)NC(=O)[C@H]1O[C@@H]1C(=O)N[C@@H](CCCCN)C(=O)Nc1ccccc1` [Example 65, Nα-{L-3-trans-[(S)-1-dimethylcarbamoyl-2-phenylethylcarbamoyl]oxirane-2-carbonyl}-L-lysine anilide hydrochloride] are more than 10000 nM, 30 nM and more than 333.
At cathepsin B, `NCCCC[C@H](NC(=O)[C@H]1O[C@@H]1C(=O)N[C@@H](Cc1ccccc1)C(=O)NCCc1ccccc1)C(=O)Nc1ccc(Cl)c2ccccc12` [Example 49, Nα-{L-3-trans-[(S)-1-(2-phenylethylcarbamoyl)-2-phenylethylcarbamoyl]oxirane-2-carbonyl}-L-lysine-1-(4-chloronaphthyl)amide hydrochloride] came in with an IC50 of 2000 nM. In addition, at cathepsin L, the B/L was determined as 1176 and inhibition was half-maximal at 1.7 nM (IC50).
On the same counts, the results for `NCCCC[C@H](NC(=O)[C@H]1O[C@@H]1C(=O)N[C@H](Cc1ccccc1)C(=O)NCCc1ccccc1)C(=O)Nc1cccc2ccccc12` [Example 53, Nα-{L-3-trans-[(R)-1-(2-phenylethylcarbamoyl)-2-phenylethylcarbamoyl]oxirane-2-carbonyl}-L-lysine-1-naphthylamide hydrochloride] are 30000 nM, 333 and 90 nM.
Take `NCCCC[C@H](NC(=O)[C@H]1O[C@@H]1C(=O)NC1Cc2ccccc2C1)C(=O)NC1c2ccccc2-c2ccccc21` [Example 10, Nα-[L-3-trans-(2-indanylcarbamoyl)oxirane-2-carbonyl]-L-lysine-9-fluorenylamide hydrochloride]: half-maximal inhibition against cathepsin L (IC50) was put at 870 nM.
In the case of `NCCCC[C@H](NC(=O)[C@H]1O[C@@H]1C(=O)N[C@@H](Cc1ccccc1)C(=O)NCCc1ccccc1)C(=O)Nc1ccccc1` [Example 35, Nα-{L-3-trans-[(S)-1-(2-phenylethylcarbamoyl)-2-phenylethylcarbamoyl]oxirane-2-carbonyl}-L-lysine anilide hydrochloride], the midpoint of inhibition on cathepsin B, the IC50, lay at 11000 nM. At cathepsin L, this compound had a B/L of 6470 and an IC50 of 1.7 nM.
On the same counts, the results for `CCCNC(=O)[C@H](Cc1ccccc1)NC(=O)[C@H]1O[C@@H]1C(=O)N[C@@H](CCCCN)C(=O)Nc1cccc2ccccc12` [Example 51, Nα-{L-3-trans-[(S)-1-propylcarbamoyl-2-phenylethylcarbamoyl]oxirane-2-carbonyl-L-lysine-1-naphthylamide hydrochloride] are 8500 nM, more than 85000 and less than 0.1 nM.
`COc1ccccc1NC(=O)[C@H](CCCCN)NC(=O)[C@H]1O[C@@H]1C(=O)N[C@@H](Cc1ccccc1)C(N)=O` [Example 37, Nα-{L-3-trans-[(S)-1-carbamoyl-2-phenylethylcarbamoyl]oxirane-2-carbonyl}-L-lysine-2-methoxyanilide hydrochloride] came in with an IC50 against cathepsin B of 25000 nM. Besides, at cathepsin L, the B/L was found to be 3906 and the IC50 amounted to 6.4 nM.
The compound `NCCCC[C@H](NC(=O)[C@H]1O[C@@H]1C(=O)N[C@@H](Cc1ccccc1)C(N)=O)C(=O)N1CCc2ccccc21` [Example 45, Nα-{L-3-trans-[(S)-1-carbamoyl-2-phenylethylcarbamoyl]oxirane-2-carbonyl}-L-lysine indolinylamide hydrochloride] registered an IC50 against cathepsin B of 40000 nM. At cathepsin L, this compound displayed a B/L of 571 and an IC50 of 70 nM.
On to `NCCCC[C@H](NC(=O)[C@H]1O[C@@H]1C(=O)N[C@@H](Cc1ccccc1)C(=O)Nc1ccccc1)C(=O)Nc1cccc2ccccc12` [Example 57, Nα-{L-3-trans-[(S)-1-phenylcarbamoyl-2-phenylethylcarbamoyl]oxirane-2-carbonyl}-L-lysine-1-naphthylamide hydrochloride], for which the IC50 against cathepsin B was more than 10000 nM; against cathepsin L it was 9 nM. The same compound showed a B/L on cathepsin L of more than 11111.
On cathepsin L, `NCCCC[C@H](NC(=O)[C@H]1O[C@@H]1C(=O)NCCc1ccccc1)C(=O)NC1c2ccccc2-c2ccccc21` [Example 6, Nα-[L-3-trans-(2-phenylethylcarbamoyl)oxirane-2-carbonyl]-L-lysine-9-fluorenylamide hydrochloride] showed an IC50 of 960 nM. In other words, the sub-micromolar range.
For the compound `NCCCC[C@H](NC(=O)[C@H]1O[C@@H]1C(=O)N[C@@H](Cc1ccccc1)C(=O)NC1CCCCC1)C(=O)Nc1ccccc1` [Example 69, Nα-{L-3-trans-[(S)-1-cyclohexylcarbamoyl-2-phenylethylcarbamoyl]oxirane-2-carbonyl}-L-lysine anilide hydrochloride], the half-maximal inhibitory concentration (IC50) on cathepsin B is more than 10000 nM; against cathepsin L, 8.5 nM. The compound also came in with a B/L on cathepsin L of more than 1177.
On the same counts, the results for `NCCCC[C@H](NC(=O)[C@H]1O[C@@H]1C(=O)N[C@@H](Cc1ccccc1)C(=O)NCCc1ccccc1)C(=O)N1CCc2ccccc21` [Example 47, Nα-{L-3-trans-[(S)-1-(2-phenylethylcarbamoyl)-2-phenylethylcarbamoyl]oxirane-2-carbonyl}-L-lysine indolinylamide hydrochloride] are 15000 nM, 0.1 nM and 150000.
On cathepsin L, `CC(=O)NCCCC[C@H](NC(=O)[C@H]1O[C@@H]1C(=O)N[C@@H](Cc1ccccc1)C(N)=O)C(=O)Nc1cccc2ccccc12` [Example 31, Nα-{L-3-trans-[(S)-1-carbamoyl-2-phenylethylcarbamoyl]oxirane-2-carbonyl)-Nε-acetyl-L-lysine-1-naphthylamide] had an IC50 of 7 nM.
`CC(C)NC(=O)[C@H](Cc1ccccc1)NC(=O)[C@H]1O[C@@H]1C(=O)N[C@@H](CCCCN)C(=O)Nc1ccccc1` [Example 61, Nα-{L-3-trans-[(S)-1-isopropylcarbamoyl-2-phenylethylcarbamoyl]oxirane-2-carbonyl}-L-lysine anilide hydrochloride] showed an IC50 against cathepsin B of more than 10000 nM. Also, on cathepsin L, the B/L is recorded as more than 3571 and the midpoint of inhibition, the IC50, lay at 2.8 nM.
The compound `NCCCC[C@H](NC(=O)[C@H]1O[C@@H]1C(=O)N[C@@H](Cc1ccccc1)C(N)=O)C(=O)N(Cc1ccccc1)Cc1ccccc1` [Example 16, Nα-{L-3-trans-[(S)-1-carbamoyl-2-phenylethylcarbamoyl]oxirane-2-carbonyl}-L-lysine dibenzylamide hydrochloride] returned an IC50 at cathepsin L of 220 nM. This lies in the sub-micromolar range.
`CNC(=O)[C@H](Cc1ccccc1)NC(=O)[C@H]1O[C@@H]1C(=O)N[C@@H](CCCCN)C(=O)Nc1ccccc1` [Example 63, Nα-{L-3-trans-[(S)-1-methylcarbamoyl-2-phenylethylcarbamoyl]oxirane-2-carbonyl}-L-lysine anilide hydrochloride]: the values for the IC50 on cathepsin B and against cathepsin L were more than 10000 nM and 5.2 nM, respectively. Besides, the B/L on cathepsin L worked out at 1923.
As to `NCCCC[C@H](NC(=O)[C@H]1O[C@@H]1C(=O)N[C@@H](Cc1ccccc1)C(N)=O)C(=O)Nc1ccc(Cl)c2ccccc12` [Example 48, Nα-{L-3-trans-[(S)-1-carbamoyl-2-phenylethylcarbamoyl]oxirane-2-carbonyl}-L-lysine-1-(4-chloronaphthyl)amide hydrochloride], on cathepsin B, half-maximal inhibition (IC50) was put at 3100 nM. At cathepsin L, the B/L is 7045.

Broadly, the IC50 is the point on the concentration scale where inhibition reaches its midpoint. A low value points to greater potency.
